In US12187746B2, “C26-linked rapamycin analogs as mTOR inhibitors” (Revolution Medicines, Inc., priority 2018, dated 2025):

Tests used:
P-P70S6K (T389) = assay: Cell based AlphaLISA assay, inhibition of P-P70S6K (T389) in MDA-MB-468 cells; settings: Homo sapiens, 4 h, 0.017-1,000 nM, two to four hours at 37° C., AlphaLisa SureFire Ultra, read-out: pIC50 for Inhibition of mTORC1 and mTORC2 Substrate Phosphorylation, p-P70S6K-(T389) (converted)
Procedure, shortened: (§1)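 mTORC1 and mTORC2 activity in cells tracked through AlphaLISA SureFire Ultra detection of the phosphoproteins after incubation and cell lysis; Alpha signal read in duplicate. IC50 from normalized concentration–response regression with control-based normalization.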

P-4E-BP1 (T37/46) = assay: Cell based AlphaLISA assay, inhibition of P-4E-BP1 (T37/46) in MDA-MB-468 cells; settings: Homo sapiens, 4 h, 0.017-1,000 nM, two to four hours at 37° C., AlphaLisa SureFire Ultra, read-out: pIC50 for Inhibition of mTORC1 and mTORC2 Substrate Phosphorylation, p-4E-BP1-(T37/46) (converted)
Procedure, shortened: as §1

P-Akt (S473) = assay: Cell based AlphaLISA assay, inhibition of P-Akt (S473) in MDA-MB-468 cells; settings: Homo sapiens, 4 h, 0.017-1,000 nM, two to four hours at 37° C., AlphaLisa SureFire Ultra, read-out: pIC50 for Inhibition of mTORC1 and mTORC2 Substrate Phosphorylation, p-AKT1/2/3-(S473) (converted)
Procedure, shortened: as §1

Row | SMILES | IC50 (P-P70S6K (T389)) [nM] | IC50 (P-4E-BP1 (T37/46)) [nM] | IC50 (P-Akt (S473)) [nM]
1 | CO[C@H]1C[C@@H]2CC[C@@H](C)[C@@](O)(O2)C(=O)C(=O)N2CCCC[C@H]2C(=O)O[C@H]([C@H](C)C[C@@H]2CC[C@@H](O)[C@H](OC)C2)C[C@@H](O)[C@H](C)/C=C(\C)[C@@H](O)[C@@H](OC)C(=NOCC(=O)NCc2cnc(N3CCN(C(=O)CCOCCN4CCN(c5ncc(C(=O)N6CCc7cc(Cn8nc(-c9ccc%10oc(N)nc%10c9)c9c(N)ncnc98)ccc7C6)cn5)CC4)[C@@H](C(=O)O)C3)nc2)[C@H](C)C[C@H](C)/C=C/C=C/C=C/1C [Example 55] | < 1 | 3.16 to 31.6 | > 1000
2 | CO[C@H]1C[C@@H]2CC[C@@H](C)[C@@](O)(O2)C(=O)C(=O)N2CCCC[C@H]2C(=O)O[C@H]([C@H](C)C[C@@H]2CC[C@@H](O)[C@H](OC)C2)C[C@@H](O)[C@H](C)/C=C(\C)[C@@H](O)[C@@H](OC)C(=NOCC(=O)N2CCc3nc(N4CCN(C(=O)CCOCCN5CCN(c6ncc(C(=O)N7CCc8cc(Cn9nc(-c%10ccc%11oc(N)nc%11c%10)c%10c(N)ncnc%109)ccc8C7)cn6)CC5)CC4)ncc3C2)[C@H](C)C[C@H](C)/C=C/C=C/C=C/1C [Example 57] | < 1 | 3.16 to 31.6 | > 1000
3 | CO[C@H]1C[C@@H]2CC[C@@H](C)[C@@](O)(O2)C(=O)C(=O)N2CCCC[C@H]2C(=O)O[C@H]([C@H](C)C[C@@H]2CC[C@@H](O)[C@H](OC)C2)C[C@@H](O)[C@H](C)/C=C(\C)[C@@H](O)[C@@H](OC)C(=NOCC(=O)NCc2cnc(N3CCN(CCOCCN4CCN(c5ncc(C(=O)N6CCc7cc(Cn8nc(-c9ccc%10oc(N)nc%10c9)c9c(N)ncnc98)ccc7C6)cn5)CC4)CC3)nc2)[C@H](C)C[C@H](C)/C=C/C=C/C=C/1C [Example 59] | < 1 | 3.16 to 31.6 | > 1000
4 | CO[C@H]1C[C@@H]2CC[C@@H](C)[C@@](O)(O2)C(=O)C(=O)N2CCCC[C@H]2C(=O)O[C@H]([C@H](C)C[C@@H]2CC[C@@H](O)[C@H](OC)C2)C[C@@H](O)[C@H](C)/C=C(\C)[C@@H](O)[C@@H](OC)C(=NOCC(=O)N2CCc3nc(N4CCN(CCOCCN5CCN(c6ncc(C(=O)N7CCc8cc(Cn9nc(-c%10ccc%11oc(N)nc%11c%10)c%10c(N)ncnc%109)ccc8C7)cn6)CC5)CC4)ncc3C2)[C@H](C)C[C@H](C)/C=C/C=C/C=C/1C [Example 61] | 1 to 10 | 3.16 to 31.6 | > 1000
5 | CO[C@H]1C[C@@H]2CC[C@@H](C)[C@@](O)(O2)C(=O)C(=O)N2CCCC[C@H]2C(=O)O[C@H]([C@H](C)C[C@@H]2CC[C@@H](O)[C@H](OC)C2)C[C@@H](O)[C@H](C)/C=C(\C)[C@@H](O)[C@@H](OC)C(=NOCC(=O)NCc2cnc(N3CCN(C(=O)CCOCCN4CCC(N5CCC(C(=O)N6CCc7cc(Cn8nc(-c9ccc%10oc(N)nc%10c9)c9c(N)ncnc98)ccc7C6)CC5)CC4)CC3)nc2)[C@H](C)C[C@H](C)/C=C/C=C/C=C/1C [Example 63] | < 1 | 3.16 to 31.6 | > 1000
6 | CO[C@H]1C[C@@H]2CC[C@@H](C)[C@@](O)(O2)C(=O)C(=O)N2CCCC[C@H]2C(=O)O[C@H]([C@H](C)C[C@@H]2CC[C@@H](O)[C@H](OC)C2)C[C@@H](O)[C@H](C)/C=C(\C)[C@@H](O)[C@@H](OC)C(=NOCC(=O)NCc2cnc(N3CCN(C(=O)CCCN4CCN(c5ncc(C(=O)N6CCc7cc(Cn8nc(-c9ccc%10oc(N)nc%10c9)c9c(N)ncnc98)ccc7C6)cn5)CC4)CC3)nc2)[C@H](C)C[C@H](C)/C=C/C=C/C=C/1C [Example 65] | 1 to 10 | 3.16 to 31.6 | > 1000
